According to patent US20220143061A1, “3'3'-CYCLIC DINUCLEOTIDES AND PRODRUGS THEREOF” (INSTITUTE OF ORGANIC CHEMISTRY AND BIOCHEMISTRY ASCR, V.V.I., priority 2019, published 2022):
Read-outs that look alike come from different tables or passages of the source.

Columns and labels:
[1] = target: T1, human wild type STING (WT STING) (Homo sapiens, UniProt Q86WV6, H232R); experiment: Digitonin assay using 293T wtSTING-FL reporter cells; format: cell-based; conditions: 293T wtSTING-FL cells, digitonin buffer 30 minutes, then 5 hours; ISRE firefly luciferase
T1 construct: host or cells: 293T cells (ATCC CRL-3216), stably double transfected with pUNO1-hSTING-WT and pGL64.27-4×ISRE
From the text: (§1) Two complementary oligonucleotides of the sequence […] […] […] […] […] The oligonucleotides were mixed in equal molar amounts, hybridized, and cleaved by restriction endonucleases HindIII (cat. #. R0104S, NEB, Ipswich, USA) and BglII (cat. #R0144S, NEB, Ipswich, USA). Ultimately, they were ligated into plasmid pGL4.27 (cat. #E6651, Promega, Madison, USA) linearized with the same enzymes. As result the sequence with four ISRE sites was placed upstream of the minimum promoter of firefly luciferase reporter gene.
(§2) After 5 minutes incubation at room temperature (RT), 250 μL of the mixture was added dropwise to the cells in one well. Cells were incubated 36 hours at 37° C. with 5% CO2, and then detached with 0.05% Trypsin and 0.22 g/L EDTA (both cat. #L0941, Biowest, Riverside, USA).
(§3) Transfected cells were seeded onto poly-D-lysine coated six well plates at density 50,000 cells per 1 cm^2 in DMEM medium with high glucose containing 10% heat inactivated FBS, 30 μg/mL blasticidin (cat. #ant-b1-05, InvivoGen, San Diego, USA), 0.06 mg/ml Penicillin G and 0.1 mg/ml Streptomycin Sulfate (both cat. #. L0018, Biowest, Riverside, USA). The medium was replenished every 3-4 days until visible colonies of cells resistant to blasticidin were formed.
(§4) Blasticidin resistant cells stably expressing WT STING were further transfected with pGL64.27-4×ISRE plasmid following the same procedure as described above. […] Homogeneous culture of stably double transfected cells was prepared by limiting dilution of cells in 96 well plates and wells with cells were selected that originated from a single cell.
The medium was removed next day and three fold serial dilutions of compounds in Digitonin buffer containing 50 mmol·l^−1 HEPES (cat. #H3375, Sigma Aldrich, Czech Republic) pH 7.0, 100 mmol·l^−1 KCl, 3 mmol·l^−1 MgCl2, 0.1 mmol·l^−1 DTT (cat. #D0632, Sigma Aldrich, Czech Republic), 85 mmol·l^−1 Sucrose (cat. #S7903, Sigma Aldrich, Czech Republic), 0.2% BSA (cat. #A2153, Sigma Aldrich, Czech Republic), 1 mmol·l^−1 ATP (cat. #A1852, Sigma Aldrich, Czech Republic), 0.1 mmol·l^−1 GTP (cat. #G8877, Sigma Aldrich, Czech Republic), and 10 μg/mL Digitonin A (cat. #D141, Sigma Aldrich, Czech Republic) were added to the cells. The buffer was removed after 30 minutes incubation at 37° C. with 5% C02, the cells were washed once with 100 μl of cultivation medium, and 100 μl of medium was added to each well. The plates with cells were incubated for 5 hours at 37° C. with 5% CO2, 50 μl of the medium was removed and 30 μl of ONE-Glo™ Luciferase Assay System reagent (cat. #E6120, Promega, Madison, USA) was added to each well. Luminesce was read on Synergy H1 (Biotek, Winooski, USA).

[2] = target: T1, human wild type STING (WT STING); experiment: 293T WT STING standard reporter assay; format: cell-based; conditions: 293T wtSTING-FL cells, no digitonin, 7 hours; ISRE firefly luciferase; read-out: 293T WT STING EC50
From the text: as §1, §2, §3, §4
The medium was removed the next day and three-fold serial dilutions of compounds in 100 μl medium were added to the cells. The plates were incubated for 7 hours at 37° C. with 5% CO2. Next 50 μl of the medium was removed from wells, and 30 μl of ONE-Glo™ Luciferase Assay System reagent (cat. #E6120, Promega, Madison, USA) was added to each well. Luminescence was read on Synergy H1 (Biotek, Winooski, USA).

[3] = system: peripheral blood mononuclear cell (PBMC); experiment: Peripheral blood mononuclear cell assay (cytokine levels); format: cell-based; conditions: 1 h with compound, wash, 15 hour incubation, average of one to four donors
Procedure: Selected compounds were tested in an in vitro peripheral blood mononuclear cell (PBMC) assay. […] Serially diluted tested compounds were added to wells in 50 μl of cultivation medium and cell were incubated with compounds for 1 h at 37° C. with 5% CO2. Plates with cells were then spun 500 g for 5 minutes and medium was removed. Cells were washed twice with the cell culture medium by the use of centrifugation and gently resuspended in 100 μl medium without compounds. After 15 hour incubation at 37° C. with 5% CO2, the cell culture medium was collected and the levels of interferon-alpha (INF-α), interferon-gamma (INF-γ) and tumor necrosis factor-alpha (TNF-α) were determined with ProcartaPlex Assays (ThermoFisher, Waltham, USA) and MAGPIX System (Merck KGaA, Darmstadt, Germany). […] Values reported are an average of runs from one to four donors.

AQ STING (G230A-R293Q) = target: T2, AQ STING (G230A-R293Q) (Homo sapiens, UniProt Q86WV6, G230A/H232R/R293Q); experiment: Differential Scanning Fluorimetry with AQ STING; format: binding; conditions: thermal shift vs apoprotein; 150 μM CDN; truncated AQ STING 0.1 mg/ml
T2 construct: 8xHis (N, cleaved yes); SUMO (N, cleaved yes); made in house
Procedure: (§5) Purified PCR products were cleaved with restriction enzymes BamHI (cat. #R0136S, NEB, Ipswich, USA) and NotI (cat. #R0189S, NEB, Ipswich, USA) and cloned into the pSUMO vector linearized with the identical enzymes.
(§6) DNase I (cat. #D5025, Sigma Aldrich, Czech Republic) and RNase A (cat. #R6513, Sigma Aldrich, Czech Republic) were added (final concentration 50 μg/ml) together with MgCl2 (final concentration 5 mmol·l^−1) to the homogenate and bacteria were lysed using French Press G-M™ High-Pressure Cell Press Homogenizer (1500 psi, 3 cycles). […] The resin was poured into a chromatography column, washed with 50 ml buffer A (50 mmol·l^−1 TrisCl (pH 8.0), 800 mmol·l^−1 NaCl, 3 mmol·l^−1 β-mercaptoethanol; 10% glycerol; 20 mmol·l^−1 imidazole) and 8-His-SUMO tagged STING proteins were eluted with 15 ml buffer A containing 300 mmol·l^−1 imidazole. […] Proteins were concentrated with Amicon® Ultra-15 10 K device (cat. #UFC901008, Merck Millipore, Billerica, USA) and flash frozen in liquid N2.
(§7) 20 μL solutions of the reaction mixtures were pipetted in triplicates into 96 well optical reaction plates and thermal denaturation of samples were performed on real time PCR cycler (LightCycler® 480 Instrument II—Roche, Basel, Switzerland). The first derivative of the thermal denaturation curves was performed to calculate denaturing temperatures of STING-CDN complexes and STING apoproteins. The thermal shift for each CDN was calculated by subtracting the average denaturing temperature of STING apoprotein from the average denaturing temperature of STING CDN complex.

WT STING = target: T3, WT STING (Homo sapiens, UniProt Q86WV6, H232R); experiment: Differential Scanning Fluorimetry with WT STING; format: binding; conditions: thermal shift vs apoprotein; 150 μM CDN; truncated WT STING 0.1 mg/ml
T3 construct: 8xHis (N, cleaved yes); SUMO (N, cleaved yes); made in house
Procedure: as §5, §6, §7

T2 sequence (Q86WV6 140-343 G230A/H232R/R293Q): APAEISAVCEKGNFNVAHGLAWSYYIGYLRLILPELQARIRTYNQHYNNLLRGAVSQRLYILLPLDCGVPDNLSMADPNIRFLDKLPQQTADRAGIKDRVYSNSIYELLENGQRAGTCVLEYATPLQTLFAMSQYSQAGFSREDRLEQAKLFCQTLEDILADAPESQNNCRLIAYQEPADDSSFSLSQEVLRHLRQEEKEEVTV
T1 sequence (Q86WV6 whole entry H232R): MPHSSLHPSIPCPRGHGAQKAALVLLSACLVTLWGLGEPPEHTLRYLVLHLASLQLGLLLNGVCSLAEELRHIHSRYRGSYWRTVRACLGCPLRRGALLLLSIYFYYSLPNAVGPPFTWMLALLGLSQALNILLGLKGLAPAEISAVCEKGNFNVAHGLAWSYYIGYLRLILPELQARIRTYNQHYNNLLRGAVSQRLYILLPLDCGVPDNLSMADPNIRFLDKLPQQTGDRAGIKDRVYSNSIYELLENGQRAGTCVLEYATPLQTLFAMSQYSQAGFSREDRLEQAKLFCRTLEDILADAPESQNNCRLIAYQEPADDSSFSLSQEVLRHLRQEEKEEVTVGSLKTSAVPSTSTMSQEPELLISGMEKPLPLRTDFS
T3 sequence (Q86WV6 140-343 H232R): as the sequence (Q86WV6 140-343 G230A/H232R/R293Q) above, with A91G, Q154R counted along it

Row | SMILES | EC50 [1] [µM] | EC50 [2] [µM] | DSF ΔTm AQ STING (AQ STING (G230A-R293Q)) [°C] | DSF ΔTm WT STING (WT STING) [°C] | EC50 ([3]; read-out: PBMC EC50 IFN-α) [µM] | EC50 ([3]; read-out: PBMC EC50 IFN-γ) [µM] | EC50 ([3]; read-out: PBMC EC50 TNF-α) [µM]
1 | Nc1ncnc2c1ncn2[C@@H]1O[C@@H]2COP(=O)(S)O[C@H]3[C@@H](F)[C@H](n4cnc5c(N)ncnc54)O[C@@H]3COP(=O)(S)CO[C@H]2[C@H]1F (single isomer, unassigned) [Compound 14b] | 0.01 | 0.2 | 16.7 | 8.6 | 46 | 33 | 23
2 | Nc1ncnc2c1ncn2[C@@H]1O[C@@H]2COP(=O)(S)O[C@H]3[C@@H](F)[C@H](n4cnc5c(N)ncnc54)O[C@@H]3COP(=O)(S)CO[C@H]2[C@H]1F (single isomer, unassigned) [Compound 14c] | 0.007 | 0.3 | 17.6 | 8.2 | 68 | 44 | 51
3 | Nc1ncnc2c1ncn2[C@@H]1O[C@@H]2COP(=O)(O)O[C@H]3[C@@H](F)[C@H](n4cnc5c(N)ncnc54)O[C@@H]3COP(=O)(O)CO[C@H]2[C@H]1F [Compound 21, (2R,3R,3aR,7aR,9R,10R,10aR,15aR)-2,9-bis(6-amino-9H-purin-9-yl)-3,10-difluoro-5,13-dihydroxydecahydro-2H-difuro[3,2-d:3′,2′-k][1,3,7,10]tetraoxa[2,8]diphosphacyclotridecine 5,13-dioxide] | 0.01 | 3.1 | 16.1 | 9.4 | 100 | 26 | 50

Further molecules by falling EC50 [1], results first:

Row | EC50 [1] [µM] | EC50 [2] [µM] | DSF ΔTm AQ STING (AQ STING (G230A-R293Q)) [°C] | DSF ΔTm WT STING (WT STING) [°C] | SMILES | EC50 ([3]; read-out: PBMC EC50 IFN-α) [µM] | EC50 ([3]; read-out: PBMC EC50 IFN-γ) [µM] | EC50 ([3]; read-out: PBMC EC50 TNF-α) [µM]
4 | 0.05 | 1.4 | 18.2 | 13.6 | Nc1ncnc2c1ncn2[C@@H]1O[C@@H]2COP(=O)(S)O[C@H]3[C@@H](F)[C@H](n4cnc5c(N)ncnc54)O[C@@H]3COP(=O)(O)CO[C@H]2[C@H]1F (single isomer, unassigned) [Compound 11b] | 123 | > 125 | 118
5 | 0.01 | 4.5 | 9.3 | 4.8 | Nc1ncnc2c1ncn2[C@@H]1O[C@@H]2COP(=O)(S)O[C@H]3[C@@H](F)[C@H](n4cnc5c(N)ncnc54)O[C@@H]3COP(=O)(O)CO[C@H]2[C@H]1F (single isomer, unassigned) [Compound 11a] | 400 | 130 | 90
